Consider two molecules from BindingDB's records for doi:10.1128/AAC.01311-05 (Microbiotix, 2007).

Where only a bound is given, the exact number is not on record here.

Experiment [1] addresses T1, DNA polymerase alpha subunit B (Bos taurus, UniProt Q58D13).
T1 sequence (Q58D13 whole entry): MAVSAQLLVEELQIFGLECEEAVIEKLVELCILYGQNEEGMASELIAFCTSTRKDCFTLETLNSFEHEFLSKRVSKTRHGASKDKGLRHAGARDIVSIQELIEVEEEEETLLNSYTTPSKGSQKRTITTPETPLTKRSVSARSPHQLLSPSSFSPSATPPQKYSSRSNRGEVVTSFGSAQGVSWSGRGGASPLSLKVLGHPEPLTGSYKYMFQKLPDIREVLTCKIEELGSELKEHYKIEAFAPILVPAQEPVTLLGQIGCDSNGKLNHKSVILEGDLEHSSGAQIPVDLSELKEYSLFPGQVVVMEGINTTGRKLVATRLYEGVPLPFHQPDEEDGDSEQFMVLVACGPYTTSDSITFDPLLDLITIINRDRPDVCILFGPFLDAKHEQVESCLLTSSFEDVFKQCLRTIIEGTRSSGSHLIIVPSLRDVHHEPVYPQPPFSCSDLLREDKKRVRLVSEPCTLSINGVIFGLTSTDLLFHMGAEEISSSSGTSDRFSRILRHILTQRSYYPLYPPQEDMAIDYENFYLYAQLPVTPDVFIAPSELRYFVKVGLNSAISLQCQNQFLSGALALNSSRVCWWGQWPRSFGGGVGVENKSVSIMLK
Kind of experiment: DNA Polymerase Activity Assay. The note with it: pH 7.5; 37 °C. The protocol:
(§1) Reaction velocities were determined at each dGTP concentration and used to create double reciprocal plots of velocity versus dGTP concentration. The plots were used to assess the mechanism of inhibition and calculate the apparent Ki value for the inhibitor.

Experiment [2] deals with DNA polymerase III subunit alpha (Escherichia coli (strain K12), UniProt P10443). Kind of experiment: DNA Polymerase Activity Assay. The note with it: pH 7.5; 30 °C. The protocol:
as §1

The target of experiment [3] is DNA polymerase III subunit alpha (Bacillus subtilis (strain 168), UniProt O34623). The experiment in a line: DNA Polymerase Activity Assay. The note with it: pH 7.5; 30 °C. As to the method:
as §1

For experiment [4], the target named is DNA gyrase subunit A/B (Bacillus subtilis (strain 168), UniProt P05652+P05653). Kind of experiment: DNA Gyrase Activity Assay. The note with it: pH 7.5; 30 °C.
For experiment [5], the target named is DNA topoisomerase 4 subunit A [V210L]/B (Bacillus subtilis, UniProt Q45066+Q59192, V210L). Kind of experiment: DNA Topoisomerase IV Assay. The note with it: pH 7.5; 30 °C.
Sequence of DNA topoisomerase 4 subunit A [V210L]/B (Q45066 whole entry V210L): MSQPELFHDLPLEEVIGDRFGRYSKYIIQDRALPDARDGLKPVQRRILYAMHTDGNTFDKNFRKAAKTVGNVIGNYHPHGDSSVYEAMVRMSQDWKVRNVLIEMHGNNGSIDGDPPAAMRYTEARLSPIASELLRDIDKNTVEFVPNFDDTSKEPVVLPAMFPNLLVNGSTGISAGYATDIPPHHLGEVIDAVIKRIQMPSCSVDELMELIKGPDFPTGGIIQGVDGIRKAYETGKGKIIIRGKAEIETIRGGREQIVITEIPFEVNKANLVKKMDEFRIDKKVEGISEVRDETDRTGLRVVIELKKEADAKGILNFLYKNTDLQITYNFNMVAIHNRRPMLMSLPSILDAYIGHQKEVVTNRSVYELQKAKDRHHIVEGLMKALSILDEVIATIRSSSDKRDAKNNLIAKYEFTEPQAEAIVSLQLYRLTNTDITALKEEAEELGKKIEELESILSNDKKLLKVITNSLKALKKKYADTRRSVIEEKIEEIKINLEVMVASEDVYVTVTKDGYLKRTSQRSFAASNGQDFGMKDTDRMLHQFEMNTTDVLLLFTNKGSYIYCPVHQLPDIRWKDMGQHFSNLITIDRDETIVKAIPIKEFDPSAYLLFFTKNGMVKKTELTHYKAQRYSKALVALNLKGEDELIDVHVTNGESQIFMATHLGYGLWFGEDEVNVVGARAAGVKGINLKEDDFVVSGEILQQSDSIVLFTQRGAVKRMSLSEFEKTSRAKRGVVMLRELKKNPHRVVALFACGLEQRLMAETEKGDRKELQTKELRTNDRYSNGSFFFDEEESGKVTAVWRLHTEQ
Sequence of DNA topoisomerase 4 subunit A [V210L]/B (Q59192 whole entry): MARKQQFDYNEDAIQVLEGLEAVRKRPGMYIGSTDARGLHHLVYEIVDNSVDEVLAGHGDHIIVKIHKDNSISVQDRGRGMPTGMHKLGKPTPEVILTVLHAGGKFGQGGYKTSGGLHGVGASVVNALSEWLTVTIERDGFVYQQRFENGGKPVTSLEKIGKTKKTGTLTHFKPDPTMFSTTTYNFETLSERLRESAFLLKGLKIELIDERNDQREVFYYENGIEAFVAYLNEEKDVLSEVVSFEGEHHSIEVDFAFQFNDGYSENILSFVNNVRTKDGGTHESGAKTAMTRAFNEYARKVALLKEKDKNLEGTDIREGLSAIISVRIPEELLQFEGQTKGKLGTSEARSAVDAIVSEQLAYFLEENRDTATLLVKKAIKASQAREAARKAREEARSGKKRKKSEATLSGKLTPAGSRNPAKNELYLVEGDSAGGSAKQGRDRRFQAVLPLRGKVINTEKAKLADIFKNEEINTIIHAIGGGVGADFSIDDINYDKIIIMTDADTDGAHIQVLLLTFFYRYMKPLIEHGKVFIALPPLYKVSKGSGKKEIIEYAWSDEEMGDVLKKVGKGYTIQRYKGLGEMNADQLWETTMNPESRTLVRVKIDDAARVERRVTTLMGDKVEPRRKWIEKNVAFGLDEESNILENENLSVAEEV

Sequence of DNA gyrase subunit A/B (P05653 whole entry): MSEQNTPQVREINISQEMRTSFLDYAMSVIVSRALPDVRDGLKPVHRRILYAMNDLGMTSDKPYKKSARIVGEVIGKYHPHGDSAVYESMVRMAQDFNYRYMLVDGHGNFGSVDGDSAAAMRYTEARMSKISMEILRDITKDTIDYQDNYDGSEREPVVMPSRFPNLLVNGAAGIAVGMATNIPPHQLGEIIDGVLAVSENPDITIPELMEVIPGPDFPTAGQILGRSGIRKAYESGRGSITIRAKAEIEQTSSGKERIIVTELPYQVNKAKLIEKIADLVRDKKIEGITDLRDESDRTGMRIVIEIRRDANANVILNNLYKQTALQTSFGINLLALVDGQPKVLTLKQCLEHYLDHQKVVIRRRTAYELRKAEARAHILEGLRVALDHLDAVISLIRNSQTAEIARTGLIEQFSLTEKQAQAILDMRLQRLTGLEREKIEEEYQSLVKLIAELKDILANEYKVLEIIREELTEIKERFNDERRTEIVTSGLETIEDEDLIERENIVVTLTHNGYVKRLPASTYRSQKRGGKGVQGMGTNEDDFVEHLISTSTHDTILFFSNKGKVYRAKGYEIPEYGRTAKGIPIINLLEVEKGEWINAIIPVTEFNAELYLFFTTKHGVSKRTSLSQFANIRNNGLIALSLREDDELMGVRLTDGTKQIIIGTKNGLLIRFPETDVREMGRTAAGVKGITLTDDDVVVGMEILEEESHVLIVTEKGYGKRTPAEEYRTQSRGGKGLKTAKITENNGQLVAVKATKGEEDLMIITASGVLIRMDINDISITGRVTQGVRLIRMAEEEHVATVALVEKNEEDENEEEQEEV
Sequence of DNA gyrase subunit A/B (P05652 whole entry): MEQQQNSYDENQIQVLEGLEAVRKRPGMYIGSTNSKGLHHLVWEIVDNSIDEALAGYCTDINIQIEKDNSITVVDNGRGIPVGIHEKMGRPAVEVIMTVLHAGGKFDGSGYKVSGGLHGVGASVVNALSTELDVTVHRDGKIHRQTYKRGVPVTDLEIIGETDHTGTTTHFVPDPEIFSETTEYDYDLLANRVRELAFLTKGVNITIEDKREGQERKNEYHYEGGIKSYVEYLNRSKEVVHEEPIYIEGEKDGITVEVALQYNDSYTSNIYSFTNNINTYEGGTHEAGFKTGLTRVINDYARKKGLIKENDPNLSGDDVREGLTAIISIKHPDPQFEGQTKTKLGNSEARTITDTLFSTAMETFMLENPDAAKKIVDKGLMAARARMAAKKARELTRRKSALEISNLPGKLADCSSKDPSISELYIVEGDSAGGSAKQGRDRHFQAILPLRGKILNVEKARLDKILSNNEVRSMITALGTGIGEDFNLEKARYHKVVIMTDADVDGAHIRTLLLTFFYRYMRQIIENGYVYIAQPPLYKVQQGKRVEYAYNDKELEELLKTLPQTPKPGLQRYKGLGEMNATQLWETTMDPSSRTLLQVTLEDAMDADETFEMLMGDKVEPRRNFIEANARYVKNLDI
Sequence of DNA polymerase III subunit alpha (Bacillus subtilis (strain 168), UniProt O34623) (O34623 whole entry): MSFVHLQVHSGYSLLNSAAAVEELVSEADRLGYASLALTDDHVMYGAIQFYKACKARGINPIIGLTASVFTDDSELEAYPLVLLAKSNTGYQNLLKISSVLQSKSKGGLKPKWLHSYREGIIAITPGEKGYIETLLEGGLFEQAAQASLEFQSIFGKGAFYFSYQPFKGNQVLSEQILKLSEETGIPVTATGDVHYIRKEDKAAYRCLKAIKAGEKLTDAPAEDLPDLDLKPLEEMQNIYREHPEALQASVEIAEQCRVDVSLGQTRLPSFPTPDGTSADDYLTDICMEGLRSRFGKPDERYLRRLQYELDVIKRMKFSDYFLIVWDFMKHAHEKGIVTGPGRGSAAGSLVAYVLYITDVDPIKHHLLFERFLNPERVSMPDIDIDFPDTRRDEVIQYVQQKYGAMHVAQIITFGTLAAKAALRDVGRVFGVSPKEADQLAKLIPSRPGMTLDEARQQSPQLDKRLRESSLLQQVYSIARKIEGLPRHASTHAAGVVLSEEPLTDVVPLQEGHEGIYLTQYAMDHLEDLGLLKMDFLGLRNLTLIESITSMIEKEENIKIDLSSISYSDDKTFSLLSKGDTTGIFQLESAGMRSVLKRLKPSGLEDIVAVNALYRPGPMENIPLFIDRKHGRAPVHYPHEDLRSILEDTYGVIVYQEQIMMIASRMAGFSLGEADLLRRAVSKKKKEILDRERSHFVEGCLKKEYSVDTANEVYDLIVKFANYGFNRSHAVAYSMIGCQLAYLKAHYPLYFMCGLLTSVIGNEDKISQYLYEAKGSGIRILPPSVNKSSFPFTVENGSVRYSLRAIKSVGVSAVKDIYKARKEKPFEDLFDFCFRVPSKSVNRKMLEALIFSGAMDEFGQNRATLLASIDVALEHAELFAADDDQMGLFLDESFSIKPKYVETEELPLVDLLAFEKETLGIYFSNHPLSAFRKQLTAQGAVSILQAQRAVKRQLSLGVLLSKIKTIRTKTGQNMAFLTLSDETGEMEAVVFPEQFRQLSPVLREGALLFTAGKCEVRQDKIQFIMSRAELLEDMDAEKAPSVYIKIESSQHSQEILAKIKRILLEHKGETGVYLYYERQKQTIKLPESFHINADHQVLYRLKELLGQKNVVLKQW

One may read the Ki as the equilibrium dissociation constant of an inhibitor or competing ligand from its target. Low values mean a stronger hold on the target, high ones a looser hold on the target. For `CCc1cc(Nc2cc(=O)n(CCCCN3CCN(c4c(F)cc5c(=O)c(C(=O)O)cn(C6CC6)c5c4F)CC3C)c(=O)[nH]2)ccc1C` (stereo unspecified), the Ki in experiment [1], in experiment [2] and in experiment [3] was over 482 µM in each case.

Usually IC50 stands for the concentration that inhibits the measured activity by half. A lower IC50 goes with greater potency. On to `CCc1cc(Nc2cc(=O)n(CCCCO)c(=O)[nH]2)ccc1C` [HBEMAU], for which the IC50 in experiment [4] and in experiment [5] was over 500 µM in each case. In experiment [1], this molecule displayed an inhibitory constant (Ki) of over 1010 µM.
